Test results published in ChEMBL document CHEMBL1201862, “PubChem BioAssay data set” (2004).
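Growth conditions: 96-well plates. Treatment: test compound, 48 hours, 5 concentrations. Analysis: linear interpolation between bracketing concentrations; unreached endpoints set to highest concentration. GI50: concentration for 50% inhibition of growth.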 Active and inactive are the calls of the source. No stated cut-off is given here; in the data, active = GI50 up to about 1.1 µM and inactive = higher.

How the values were obtained:
Test in all cases: DTP human tumour cell line panel, 48 h
[1] = test system: EKVX
[2] = test system: HCT-15
[3] = test system: HL-60
[4] = test system: HT-29
[5] = test system: KM12
[6] = test system: M14
[7] = test system: NCI-H460
[8] = test system: RPMI-8226
[9] = test system: SK-MEL-28
[10] = test system: SN12C
[11] = test system: SW-620
[12] = test system: U-251
[13] = test system: UO-31
[14] = test system: NCI-H226
[15] = test system: SR

Measured: GI50

O=C(CC(=O)N1N=C(n2ccc3ccccc32)CC1c1ccccc1)Nc1cccc(Cl)c1 (stereo not given)
> 100 µM: [2]
inactive: [1] > 100 µM | [3] > 100 µM | [4] > 100 µM | [5] > 100 µM | [6] > 100 µM | [7] > 100 µM | [8] > 100 µM | [9] > 100 µM | [10] > 100 µM | [11] > 100 µM | [12] > 100 µM | [13] > 100 µM

CCCCCCCCCCCCCS(=O)(=O)NCC(N)=O
inactive: [1] > 100 µM | [3] > 100 µM | [4] > 100 µM | [5] > 100 µM | [6] > 100 µM | [14] > 100 µM | [7] > 100 µM | [9] > 100 µM | [10] > 100 µM | [11] > 100 µM | [12] > 100 µM | [13] > 100 µM
> 100 µM: [2]

Oc1cc(O)c(Oc2cccc(O)c2O)c(O)c1
> 100 µM: [2]
inactive: [1] > 100 µM | [3] 99.5 µM | [4] > 100 µM | [5] > 100 µM | [6] > 100 µM | [7] > 100 µM | [8] > 100 µM | [9] > 100 µM | [10] > 100 µM | [11] 55.6 µM | [12] > 100 µM | [13] > 100 µM

O=c1[nH]cc(COCCO)c(=O)[nH]1
> 100 µM: [2]
inactive: [1] > 100 µM | [3] > 100 µM | [4] > 100 µM | [5] > 100 µM | [6] > 100 µM | [14] > 100 µM | [7] > 100 µM | [8] > 100 µM | [9] > 100 µM | [10] > 100 µM | [11] > 100 µM | [12] > 100 µM | [13] > 100 µM

O=C1NC(=O)/C(=N\c2cccc3c(=O)[nH][nH]c(=O)c23)C(c2nc3ccccc3s2)C1=O (stereo not given)
> 100 µM: [2]
inactive: [1] > 100 µM | [3] > 100 µM | [4] > 100 µM | [5] > 100 µM | [6] > 100 µM | [14] > 100 µM | [7] > 100 µM | [9] > 100 µM | [10] > 100 µM | [11] > 100 µM | [12] > 100 µM | [13] > 100 µM

O=C(NN1C(=O)C(Cl)C1c1cccc(Cl)c1)c1ccccc1O (stereo not given)
> 100 µM: [2]
inactive: [3] > 100 µM | [4] > 100 µM | [5] > 100 µM | [6] > 100 µM | [14] > 100 µM | [7] > 100 µM | [9] > 100 µM | [10] > 100 µM | [12] > 100 µM | [13] > 100 µM

CCN(CC)CCC1(C2CCCCC2)CCC(=O)NC1=O (stereo not given)
> 100 µM: [2]
inactive: [1] > 100 µM | [4] > 100 µM | [5] > 100 µM | [6] > 100 µM | [14] > 100 µM | [7] > 100 µM | [8] > 100 µM | [9] > 100 µM | [10] > 100 µM | [11] > 100 µM | [12] > 100 µM | [13] > 100 µM

CCCC(C(=O)OC)C1N/C(=N/C#N)N(Cc2ccccc2)C1=O (stereo not given)
inactive: [1] > 100 µM | [3] > 100 µM | [4] > 100 µM | [5] > 100 µM | [6] > 100 µM | [7] > 100 µM | [8] > 100 µM | [9] > 100 µM | [10] > 100 µM | [15] 91.2 µM | [11] > 100 µM | [12] > 100 µM | [13] 67.1 µM
> 100 µM: [2]

CC1=C(C(=O)CC(=O)C(=O)Nc2cccc(C)c2C)Sc2ccccc2N1
inactive: [1] > 100 µM | [3] > 100 µM | [4] > 100 µM | [5] > 100 µM | [6] > 100 µM | [14] > 100 µM | [7] > 100 µM | [8] > 100 µM | [9] > 100 µM | [10] > 100 µM | [11] > 100 µM | [12] > 100 µM | [13] > 100 µM
> 100 µM: [2]

COc1ccc(OC)c(NC(=O)C2=C(C)NC(C)=C(C(=O)Nc3cc(OC)ccc3OC)C2c2ccccc2)c1
> 100 µM: [2]
inactive: [1] > 100 µM | [4] > 100 µM | [5] 91.4 µM | [6] > 100 µM | [7] > 100 µM | [8] 4.91 µM | [9] 22.6 µM | [10] > 100 µM | [11] > 100 µM | [12] > 100 µM | [13] 35.6 µM

BrC(Br)([P+](c1ccccc1)(c1ccccc1)c1ccccc1)[P+](c1ccccc1)(c1ccccc1)c1ccccc1
20.4 µM: [2]
inactive: [1] 19.9 µM | [3] 7.94 µM | [4] 13.6 µM | [6] 18.5 µM | [14] 20.3 µM | [7] 22.8 µM | [8] 6.87 µM | [9] 16.6 µM | [10] 22.7 µM | [15] 14 µM | [11] 12.2 µM | [12] 20.3 µM | [13] 23.6 µM

O=C(c1ccccc1)c1c(C(=O)c2ccccc2)c(-c2ccccc2)c2c(-c3ccccc3)sc(-c3ccccc3)c2c1-c1ccccc1
inactive: [1] > 100 µM | [3] > 100 µM | [4] > 100 µM | [5] > 100 µM | [6] > 100 µM | [14] > 100 µM | [7] > 100 µM | [8] > 100 µM | [9] > 100 µM | [10] > 100 µM | [11] > 100 µM | [12] > 100 µM | [13] > 100 µM
> 100 µM: [2]

N#CCCN(c1ccc(/C=N/c2nc(-c3ccccc3)cs2)cc1)S(=O)(=O)c1ccccc1
inactive: [1] 37.5 µM | [3] 30.8 µM | [4] > 100 µM | [5] > 100 µM | [6] 81.7 µM | [8] 44.4 µM | [9] 85.3 µM | [10] 92.5 µM | [11] 83.8 µM | [12] > 100 µM | [13] 23.6 µM
> 100 µM: [2]

N=C(N)NS(=O)(=O)c1ccc(NC(=O)c2cccc3c(N)c4ccccc4nc23)cc1
> 100 µM: [2]
inactive: [1] > 100 µM | [5] 8.57 µM | [6] > 100 µM | [14] > 100 µM | [7] > 100 µM | [8] > 100 µM | [9] > 100 µM | [10] > 100 µM | [11] > 100 µM | [12] 99.8 µM | [13] 55.8 µM

CC(=O)/C(=C\c1ccccc1)C(=O)Nc1ccccc1
inactive: [1] > 100 µM | [3] > 100 µM | [4] > 100 µM | [5] > 100 µM | [6] > 100 µM | [14] > 100 µM | [7] > 100 µM | [8] > 100 µM | [10] > 100 µM | [15] > 100 µM | [11] > 100 µM | [12] > 100 µM | [13] > 100 µM
